For one experiment, the system named is ATF4. The experiment can be described thus: ATF4 expression inhibition assay (ATF4 luciferase reporter, thapsigargin-stressed). Particulars: Homo sapiens, HEK-293T; HEK293T cells carrying ATF4 luciferase reporter, 100 nM thapsigargin, 3 hours. Type of experiment: cell-based. As for the experimental part: The ATF4 reporter was prepared by fusing the human full length 5′UTR of ATF4 (NCBI Accession No. BC022088.2) upstream of the firefly luciferase coding sequence lacking the initiator methionine. The fused sequence was cloned into pLenti-EF1a-C-Myc-DDK-IRES-Puro cloning vector (Origen #PS100085) using standard methods. Virus production was carried out by using Lenti-X™ Packaging Single Shots Protocol (Clonetech #631276). Viral particles were used to transduce HEK293T cells (ATCC #CRL-3216, ATCC Manassas, Va.), which were subsequently selected with puromycin to generate stable cell line. Cells were maintained at 37° C. and 5% CO2 in DMEM-F12 (Hyclone #SH30023.02) supplemented with 10% heat-inactivated fetal bovine serum (Gibco #16000-044), 2 mM L-glutamine (Gibco #25030-081), 100 U/ml penicillin, and 100 μg/ml streptomycin (Gibco #15140-122).
HEK293T cells carrying the ATF4 luciferase reporter were plated on 96-well plates (Nunc) at 10,000 cells per well. Cells were treated two days after seeding with 100 nM thapsigargin (Tg) (Sigma-Aldrich #T9033) in the presence of different concentrations of selected compounds ranging from 1 nM to […]. Cells without treatment or cells treated with Tg alone were used as controls. Assay plates containing cells were incubated for 3 hours at 37° C.
Luciferase reactions were performed using Luciferase Assay System (Promega #E1501) as specified by the manufacturer. Luminescence was read with an integration time of 1 s and a gain of 110 using a Cytation-5 multi-mode microplate reader (BioTek). Relative luminescence units were normalized to Tg treatment (0% inhibition) and untreated cells (100% inhibition) and the percentage of ATF4 inhibition was calculated.
Accordingly, inhibition of ATF4 expression as a result of the test compound indicates suppression of the ISR pathway.
In general terms: Reporter assays use an easily measured gene product as a stand-in for the process of interest.

Experiment [1] deals with Chinese hamster ovary (CHO) cells. The experiment is described as follows: Protein synthesis assay (puromycin incorporation, western blot). The settings on record: without Tg, 2 hours, media alone = 100%. Type of experiment: cell-based. On the procedure:
Chinese hamster ovary (CHO) cells were maintained at 37° C. and 5% CO2 in Dulbecco's Modified Eagle's Media (DMEM) supplemented with 10% fetal bovine serum, 2 mM L-glutamine, 100 U/ml penicillin, and 100 μg/ml streptomycin. After reaching 80% of confluence, cells were detached and seeded on 6 well plates in complete media, allowed to recover overnight and treated for 2 hours with 1 μM of the test compound (to assess protein synthesis levels in unstressed condition), or for 2 hours with 300 nM Tg in the presence of 1 μM of the test compound (to assess the recovery of protein synthesis in a stressed condition). Cells with Tg alone were used as controls.
After the 2 hours treatments, media were replaced by adding 10 μg/ml puromycin (Sigma Aldrich #P8833) in complete media for 30 min. Media were removed and cells were lysed with SDS-PAGE lysis buffer. Lysates were transferred to 1.5 ml tubes and sonicated for 3 min and total protein amount were quantified using BCA Protein Assay Kit (Pierce). Equal amount of protein (30 μg) was loaded on SDS-PAGE gels. Proteins were transferred onto […] PVDF membranes (BioRad) and probed with primary antibodies diluted in Tris-buffered saline supplemented with 0.1% Tween 20 (Merck #S6996184 505) and 3% bovine serum albumin (Rockland #BSA-50).
Puromycin (12D10) (Merck #MABE343) and […] (Sigma Aldrich #A5441) antibodies were used as primary antibody. A HRP-conjugated secondary antibody (Rockland) was employed to detect immune-reactive bands using enhanced chemiluminescence (ECL Western Blotting Substrate, Pierce). Quantification of protein bands was done by densitometry using ImageJ software.
Percent increase of protein synthesis in unstressed cells (without Tg treatment) in the presence of media alone or certain test compounds is shown in Table 3. The percentage levels were normalized to the media alone condition, which correspond to 100% protein synthesis.
Percent recovery of protein synthesis in stressed cells (with Tg treatment) due to the test compounds at 1 μM is also shown in Table 3. The levels were normalized to the media alone and Tg alone conditions, which correspond to 100% and 0% respectively.
(In general: In western blotting, separated proteins are transferred to a membrane and probed.)

A further experiment has as its system Balb/c mice. The experiment can be described thus: Fasting-induced muscle atrophy, in vivo protein synthesis. Particulars: 10 mg/kg oral, 2 days fasting, versus vehicle-treated fasted mice; FIG. 1. As for the experimental part:
Wild type eight-weeks-old male Balb/c mice obtained from the vivarium Fundaciön Ciencia & Vida Chile (Santiago, Chile) are used. Mice were housed in independent plastic cages in a room maintained at 25° C. with a 12-h:12-h light:dark cycle. […]
Upon collection, muscles were immediately frozen in liquid nitrogen and then stored at −80° C. […] Protein concentration in supernatants was determined using BCA Protein Assay Kit (Pierce). […]
Puromycin (12D10) (Merck Millipore, and β-actin (Sigma-Aldrich) antibodies were used as primary antibodies. A HRP-conjugated secondary antibody (Rockland) was employed to detect immune-reactive bands using enhanced chemiluminescence (ECL Western Blotting Substrate, Pierce). Quantification of protein bands was done by densitometry using ImageJ software.
Percent of protein synthesis in tibialis anterior of each mouse from fed or fasted animals treated with vehicle or compound 3 is shown in FIG. 1. The levels were normalized to β-actin expression and percentage was calculated as the percent relative to protein synthesis levels from control mice (Fed) which correspond to 100%.

5 compounds from patent US11318133B2, “Modulators of integrated stress response pathway” (Praxis Biotech LLC, priority 2019, dated 2022) can be followed below.

What is called IC50 is the midpoint of a concentration-inhibition curve. A higher IC50 goes with weaker potency in that assay.

`O=C(NN1CCN(C[C@@H](O)COc2ccc(Cl)c(F)c2)CC1)c1cn(C2CC2)c2cc(Cl)c(F)cc2c1=O` [Compound 5, (R)-7-chloro-N-(4-(3-(4-chloro-3-fluorophenoxy)-2-hydroxypropyl)piperazin-1-yl)-1-cyclopropyl-6-fluoro-4-oxo-1,4-dihydroquinoline-3-carboxamide] came in with an IC50 with ATF4 of over 10 µM. For the same compound, the “% Protein synthesis in unstressed cells (1 μM test compound)” value (“% Protein synthesis in unstressed cells” for short) in experiment [1] is 173.2%.

Take `O=C(NC1CCN(CC(O)COc2ccc(Cl)c(F)c2)CC1)c1cn(C2CC2)c2cc(Cl)c(F)cc2c1=O` (centres unmarked) [Compound 1, 7-chloro-N-(1-(3-(4-chloro-3-fluorophenoxy)-2-hydroxypropyl)piperidin-4-yl)-1-cyclopropyl-6-fluoro-4-oxo-1,4-dihydroquinoline-3-carboxamide]: the IC50 with ATF4 is over 10 µM. The “% Protein synthesis in unstressed cells” value in experiment [1] is reported as 336.9%.

Take `O=C(NN1CCN(C[C@H](O)COc2ccc(Cl)c(F)c2)CC1)c1cn(C2CC2)c2cc(Cl)c(F)cc2c1=O` [Compound 6, (S)-7-chloro-N-(4-(3-(4-chloro-3-fluorophenoxy)-2-hydroxypropyl)piperazin-1-yl)-1-cyclopropyl-6-fluoro-4-oxo-1,4-dihydroquinoline-3-carboxamide]: the IC50 with ATF4 was over 10 µM. For the same compound, the “% Protein synthesis in unstressed cells” value in experiment [1] was determined as 244.5%.

In the experiment on ATF4, `O=C(NC1CCN(C[C@H](O)COc2ccc(Cl)c(F)c2)CC1)c1cn(C2CC2)c2cc(Cl)c(F)cc2c1=O` [Compound 3, (S)-7-chloro-N-(1-(3-(4-chloro-3-fluorophenoxy)-2-hydroxypropyl)piperidin-4-yl)-1-cyclopropyl-6-fluoro-4-oxo-1,4-dihydroquinoline-3-carboxamide] came in with an IC50 of over 10 µM. Also, the “% Protein synthesis in unstressed cells” value in experiment [1] was 397.3%. In addition, the “Protein synthesis in tibialis anterior of fasted mice” value in the experiment with Balb/c mice is on record as “improvement in protein synthesis in muscles”.

With `O=C(NC1CCN(C[C@@H](O)COc2ccc(Cl)c(F)c2)CC1)c1cn(C2CC2)c2cc(Cl)c(F)cc2c1=O` [Compound 2, (R)-7-chloro-N-(1-(3-(4-chloro-3-fluorophenoxy)-2-hydroxypropyl)piperidin-4-yl)-1-cyclopropyl-6-fluoro-4-oxo-1,4-dihydroquinoline-3-carboxamide], the IC50 in the experiment with ATF4 is over 10 µM. For the same compound, the “% Protein synthesis in unstressed cells” value in experiment [1] turned out to be 336.3%.
